Test results published in patent EP0319906A2, “Novel quinoline derivatives, processes for preparation thereof and antibacterial agent containing them” (Dainippon Pharmaceutical Co., Ltd., priority 1987, dated 1989).
In brackets after ≈: the same amount, converted by molar mass.

Experiments:
E. coli NIHJ JC-2 = experiment: In vitro antibacterial activity, twofold agar-dilution MIC; type: cell-based; conditions: Escherichia coli, NIHJJC2; E. coli NIHJ JC-2; Mueller-Hinton agar, 20-hour incubation at 37 °C; calculated for free base; read-out: minimum inhibitory concentrations (MIC)
Description: (§1) The figures in the table show minimum inhibitory concentrations (MIC) (µg/ml), calculated for free base. […] One loopful of an overnight culture of test organisms in Mueller-Hinton broth was inoculated onto 10 ml drug- containing agar layers in petri dishes. Bacterial inocula contained approximately 10⁶ colonyl-forming units. […] The MIC was defined as the lowest drug concentration which prevented visible bacterial growth.

E. coli P-5101 = experiment: as above; type: cell-based; conditions: Escherichia coli, P5101; E. coli P-5101; Mueller-Hinton agar, 20-hour incubation at 37 °C; calculated for free base; read-out: minimum inhibitory concentrations (MIC)
Description: as §1

P. aeruginosa 12 = experiment: as above; type: cell-based; conditions: Pseudomonas aeruginosa; P. aeruginosa 12; Mueller-Hinton agar, 20-hour incubation at 37 °C; calculated for free base; read-out: minimum inhibitory concentrations (MIC)
Description: as §1

S. aureus 209 JC-1 = experiment: as above; type: cell-based; conditions: Staphylococcus aureus, 209JC1; S. aureus 209 JC-1; Mueller-Hinton agar, 20-hour incubation at 37 °C; calculated for free base; read-out: minimum inhibitory concentrations (MIC)
Description: as §1

S. aureus No. 80 = experiment: as above; type: cell-based; conditions: Staphylococcus aureus; S. aureus No. 80; Mueller-Hinton agar, 20-hour incubation at 37 °C; calculated for free base; read-out: minimum inhibitory concentrations (MIC)
Description: as §1

S. aureus Terajima = experiment: as above; type: cell-based; conditions: Staphylococcus aureus; S. aureus Terajima; Mueller-Hinton agar, 20-hour incubation at 37 °C; calculated for free base; read-out: minimum inhibitory concentrations (MIC)
Description: as §1

S. epidermidis No. 8 = experiment: as above; type: cell-based; conditions: Staphylococcus epidermidis; S. epidermidis No. 8; Mueller-Hinton agar, 20-hour incubation at 37 °C; calculated for free base; read-out: minimum inhibitory concentrations (MIC)
Description: as §1

S. marcescens S-9 = experiment: as above; type: cell-based; conditions: Serratia marcescens, S9; S. marcescens S-9; Mueller-Hinton agar, 20-hour incubation at 37 °C; calculated for free base; read-out: minimum inhibitory concentrations (MIC)
Description: as §1

S. pyogenes A65 = experiment: as above; type: cell-based; conditions: Streptococcus pyogenes; S. pyogenes A65; Mueller-Hinton agar, 20-hour incubation at 37 °C; calculated for free base; read-out: minimum inhibitory concentrations (MIC)
Description: as §1

[1] = system: C. Trachomatics G/ur 1242; experiment: Antichlamydia activity, MIC in McCoy cells (inclusion bodies); type: cell-based; conditions: C. Trachomatics G/ur 1242; McCoy cells, 36 °C for 40-48 hours; calculated for free base; read-out: minimum inhibitory concentrations (MIC)
Description: (§2) The figures in the table show minimum inhibitory concentrations (MIC), (μg/ml), calculated for free base. Minimum inhibitory concentrations (MIC) were determined as follows. […] The cells were trypsinized and suspended in the same culture medium at a cell concentration of 1-2 x 10^5 cells/ml. One ml of the cell suspension was pipetted into flat-bottomed plastic tubes (14 mm in diameter) containing a cover slip (12 mm in diameter). The tubes were incubated in 5 % CO2-air at 36 °C for 20 hours. One-half ml of a chlamydial suspension (ca. 1-4 x 103 inclusion body forming units) was added into each tube, which was then centrifuged at 1500 x g for 60 minutes. The tubes were incubated for 1 hour at 36 °C. […] After further incubation at 36 °C for 40-48 hours, the cells on the cover glasses were stained with the Giemsa's solution. […] The MIC was defined as the lowest drug concentration where there were no inclusion bodies in all the cells on the cover slip.

[2] = system: C. Trachomatics G/ur 1317; experiment: as above; type: cell-based; conditions: C. Trachomatics G/ur 1317; McCoy cells, 36 °C for 40-48 hours; calculated for free base; read-out: minimum inhibitory concentrations (MIC)
Description: as §2

[3] = system: C. Trachomatics G/ur 1448; experiment: as above; type: cell-based; conditions: C. Trachomatics G/ur 1448; McCoy cells, 36 °C for 40-48 hours; calculated for free base; read-out: minimum inhibitory concentrations (MIC)
Description: as §2

C. Trachomatics G/ur 931 = experiment: as above; type: cell-based; conditions: C. Trachomatics G/ur 931; McCoy cells, 36 °C for 40-48 hours; calculated for free base; read-out: minimum inhibitory concentrations (MIC)
Description: as §2

in vivo = conditions: mouse, po; for LD50 at 7 days: male, ddY
Description: A suspension containing each of compounds of this invention in various concentrations was orally given to male mice (ddY) at a dose of 0.1 ml per 10 g of body weight. The number of dead mice was counted after 7 days, and the value of median lethal dose (LD₅₀, mg/kg) was calculated in accordance with the Behrens-Kaerber method.

Cc1c(F)c(N2CCNCC2)c(F)c2c1c(=O)c(C(=O)O)cn2C1CC1 [Compound 2, 1-cyclopropyl-6,8--difluoro-5-methyl-7-(1-piperazinyl)-1,4-dihydro-4-oxoquinoline-3-carboxylic acid]
MIC (E. coli NIHJ JC-2): 0.0063 µg/mL (≈ 0.0173 µM) | MIC (E. coli P-5101): 0.0063 µg/mL (≈ 0.0173 µM) | MIC (P. aeruginosa 12): 0.2 µg/mL (≈ 0.55 µM) | MIC (S. aureus 209 JC-1): 0.025 µg/mL (≈ 0.0688 µM) | MIC (S. aureus No. 80): 0.0125 µg/mL (≈ 0.0344 µM) | MIC (S. aureus Terajima): 0.025 µg/mL (≈ 0.0688 µM) | MIC (S. epidermidis No. 8): 0.025 µg/mL (≈ 0.0688 µM) | MIC (S. marcescens S-9): 0.1 µg/mL (≈ 0.275 µM) | MIC (S. pyogenes A65): 0.39 µg/mL (≈ 1.07 µM) | MIC [1]: 0.1 µg/mL (≈ 0.275 µM) | MIC [2]: 0.1 µg/mL (≈ 0.275 µM) | MIC [3]: 0.1 µg/mL (≈ 0.275 µM) | MIC (C. Trachomatics G/ur 931): 0.05 µg/mL (≈ 0.138 µM) | LD50 at 168 h (in vivo; orally given to male mice (ddY), dead mice counted after 7 days, Behrens-Kaerber method, read-out: LD₅₀): > 2000 mg/kg

Cc1c(F)c(N2CCC(N)C2)c(F)c2c1c(=O)c(C(=O)O)cn2C1CC1 (centres unmarked) [Compound 3, 7-(3-amino-1-pyrrolidinyl)-1-cyclopropyl-6,8-difluoro-5-methyl-1,4-dihydro-4-oxoquinoline-3-carboxylic acid]
MIC (E. coli NIHJ JC-2): 0.0125 µg/mL (≈ 0.0344 µM) | MIC (E. coli P-5101): 0.0125 µg/mL (≈ 0.0344 µM) | MIC (P. aeruginosa 12): 0.2 µg/mL (≈ 0.55 µM) | MIC (S. aureus 209 JC-1): 0.0125 µg/mL (≈ 0.0344 µM) | MIC (S. aureus No. 80): 0.0125 µg/mL (≈ 0.0344 µM) | MIC (S. aureus Terajima): 0.0125 µg/mL (≈ 0.0344 µM) | MIC (S. epidermidis No. 8): 0.0125 µg/mL (≈ 0.0344 µM) | MIC (S. marcescens S-9): 0.05 µg/mL (≈ 0.138 µM) | MIC (S. pyogenes A65): 0.2 µg/mL (≈ 0.55 µM) | MIC [1]: 0.013 µg/mL (≈ 0.0358 µM) | MIC [2]: 0.013 µg/mL (≈ 0.0358 µM) | MIC [3]: 0.013 µg/mL (≈ 0.0358 µM) | MIC (C. Trachomatics G/ur 931): 0.013 µg/mL (≈ 0.0358 µM) | LD50 at 7 days (in vivo): > 2000 mg/kg

Cc1c(F)c(N2C[C@@H](C)N[C@@H](C)C2)cc2c1c(=O)c(C(=O)O)cn2C1CC1 [Compound 4, 1-cyclopropyl-6-fluoro-5-methyl-7-(cis-3,5-dimethyl-1-piperazinyl)-1,4-dihydro-4-oxoquinoline-3-carboxylic acid]
MIC (E. coli NIHJ JC-2): 0.0125 µg/mL (≈ 0.0335 µM) | MIC (E. coli P-5101): 0.025 µg/mL (≈ 0.0669 µM) | MIC (P. aeruginosa 12): 0.2 µg/mL (≈ 0.536 µM) | MIC (S. aureus 209 JC-1): 0.025 µg/mL (≈ 0.0669 µM) | MIC (S. aureus No. 80): 0.05 µg/mL (≈ 0.134 µM) | MIC (S. aureus Terajima): 0.025 µg/mL (≈ 0.0669 µM) | MIC (S. epidermidis No. 8): 0.05 µg/mL (≈ 0.134 µM) | MIC (S. marcescens S-9): 0.39 µg/mL (≈ 1.04 µM) | MIC (S. pyogenes A65): 0.1 µg/mL (≈ 0.268 µM) | LD50 at 7 days (in vivo): > 2000 mg/kg
